Laboratory results: patent US7994196B2, “Indazole compound and pharmaceutical use thereof” (Mitsubishi Tanabe Pharma Corporation, priority 2004, dated 2011)
Like-named read-outs stand apart in the source and are kept apart here.

System: MMP-9 production
Assay: Determination of MMP-9 Production Inhibitory Activity (PMA-stimulated HEC3 cells, gelatin zymography)
Type: cell-based
Details: Endothelial cell, immortalized human vascular endothelial cells HEC3, PMA 10^-7 M stimulation, test substance at 10, 2, 0.4 and 0.08 μM, read-out: IC50 (MMP-9 production inhibitory rate)
Protocol: Immortalized human vascular endothelial cells HEC3 (supplied by Prof. Iijima of Nagoya University) were subcultured in RPMI1640 medium (Sigma Ltd.) containing 10% fetal calf serum.
The HEC3 cells (5×10^4 cells/well) were plated on a 24-well plate, and cultured in RPMI1640 medium containing 10% fetal calf serum for 24 hr. Each well was washed once with serum-free RPMI1640 medium. Then, RPMI1640 medium (250 μl/well) containing 0.05% fetal calf serum was added to each well, and the cells were further cultured for 2 hr.
The supernatant was removed, and the test substances (Example compounds shown in Table 1) diluted to various concentrations were added and incubated for 1 hr in 0.05% serum-containing RPMI1640 medium and the supernatant was removed again. A medium containing a test substance having the same concentration as in the pre-treatment and PMA (10^−7 M), which is a stimulant, was added at 250 μl/well, and the cells were further cultured for 24 hr.
After completion of the culture, water (50 μl) and 25 μl of SDS buffer (240 mM Tris-HCl (pH 6.8), 8% SDS, 40% glycerol) were added to the culture supernatant (25 μl), and the mixture (10 μl) was electrophoresed on a 7.5% polyacrylamide gel containing 0.1% gelatin.
After the electrophoresis, the gel was washed with Tris-HCl buffer (pH 7.5) containing 0.5% Triton X-100 (Sigma Ltd.) for 1 hr. The gel was immersed in an activation buffer (150 mM NaCl, 50 mM Tris-HCl (pH 7.5), 10 mM CaCl2) at 37° C. for 18 hr to activate MMP-9, and then stained with CBB. The obtained MMP-9 band was converted to numerical values by a densitometer (ATTO. Ltd.).
The MMP-9 production inhibitory rate by the test substance was calculated by the following equation. MMP-9 production inhibitory rate=100−100×{(test substance addition value−non-stimulation value)/(PMA stimulation value−non-stimulation value)}
The MMP-9 production inhibitory rates of the test substance at 10, 2, 0.4 and 0.08 μM were calculated, and IC50 value of the each test substance was determined using an analysis soft (RegExcel).

SMILES | IC50 (Homo sapiens, 24 h) [nM] | IC50 (24 hr) [nM]
O=C(Nc1n[nH]c2ccccc12)N1CCC(O)(c2ccc(Cl)c(C(F)(F)F)c2)CC1 [Ex. 1] | 790 | –
O=C(Nc1n[nH]c2ccccc12)N1CCC(O)(c2cccc(C(F)(F)F)c2)CC1 [Ex. 3] | 930 | –
O=C(Nc1n[nH]c2ccccc12)N1CCC(O)(c2ccc(Cl)cc2)CC1 [Ex. 4] | 400 | –
O=C(Nc1n[nH]c2ccccc12)N1CCC(O)(c2cc(F)cc(C(F)(F)F)c2)CC1 [Ex. 6] | 290 | –
O=C(Nc1n[nH]c2ccccc12)N1CCC(O)(c2ccc(F)c(C(F)(F)F)c2)CC1 [Ex. 9] | 340 | –
Cc1ccc(C2(O)CCN(C(=O)Nc3n[nH]c4ccccc34)CC2)cc1C(F)(F)F [Ex. 10] | 530 | –
O=C(Nc1n[nH]c2ccccc12)N1CCC(O)(c2cc(F)cc(F)c2)CC1 [Ex. 12] | 610 | –
O=C(Nc1n[nH]c2ccccc12)N1CCC(O)(c2ccc(F)c(Cl)c2)CC1 [Ex. 15] | 450 | –
O=C(Nc1n[nH]c2ccccc12)N1CCC(O)(c2cccc(Cl)c2F)CC1 [Ex. 20] | 320 | –
O=C(Nc1n[nH]c2ccccc12)N1CCC(O)(c2ccc(Cl)c(Cl)c2)CC1 [Ex. 21] | 380 | –
O=C(Nc1n[nH]c2ccccc12)N1CCC(O)(c2cc(F)cc(Cl)c2)CC1 [Ex. 22] | 330 | –
Cc1cc(C2(O)CCN(C(=O)Nc3n[nH]c4ccccc34)CC2)ccc1Cl [Ex. 23] | 450 | –
O=C(Nc1n[nH]c2ccccc12)N1CCC(O)(c2cccc(Cl)c2)CC1 [Ex. 24] | 210 | –
O=C(Nc1n[nH]c2ccccc12)N1CCC(O)(c2ccc3c(c2)OCO3)CC1 [Ex. 27] | 940 | –
Cc1cccc(C2(O)CCN(C(=O)Nc3n[nH]c4ccccc34)CC2)c1 [Ex. 28] | 360 | –
N#Cc1cccc(C2(O)CCN(C(=O)Nc3n[nH]c4ccccc34)CC2)c1 [Ex. 29] | 910 | –
CSc1cccc(C2(O)CCN(C(=O)Nc3n[nH]c4ccccc34)CC2)c1 [Ex. 30] | 300 | –
CCc1cccc(C2(O)CCN(C(=O)Nc3n[nH]c4ccccc34)CC2)c1 [Ex. 31] | 550 | –

SMILES | IC50 (Homo sapiens, 24 h) [nM] | IC50 (24 hr) [nM]
O=C(Nc1n[nH]c2ccccc12)N1CCC(O)(c2cc(Cl)ccc2Cl)CC1 [Ex. 33] | 310 | –
O=C(Nc1n[nH]c2ccccc12)N1CCC(O)(c2cc(C(F)(F)F)cc(C(F)(F)F)c2)CC1 [Ex. 34] | 430 | –
O=C(Nc1n[nH]c2ccccc12)N1CCC(O)(c2cc(C(F)(F)F)ccc2F)CC1 [Ex. 35] | 720 | –
O=C(Nc1n[nH]c2ccccc12)N1CCC(O)(c2cc(C(F)(F)F)ccc2Cl)CC1 [Ex. 36] | 540 | –
COc1ccccc1C1(C#N)CCN(C(=O)Nc2n[nH]c3ccccc23)CC1 [Ex. 40] | – | 840
N#CC1(c2cccc(C(F)(F)F)c2)CCN(C(=O)Nc2n[nH]c3ccccc23)CC1 [Ex. 42] | – | 220
N#CC1(c2ccccc2F)CCN(C(=O)Nc2n[nH]c3ccccc23)CC1 [Ex. 43] | – | 450
N#CC1(c2ccc(Cl)c(C(F)(F)F)c2)CCN(C(=O)Nc2n[nH]c3ccccc23)CC1 [Ex. 44] | – | 450
N#CC1(c2ccc(Br)s2)CCN(C(=O)Nc2n[nH]c3ccccc23)CC1 [Ex. 46] | 550 | –
N#CC1(c2cc(F)cc(F)c2)CCN(C(=O)Nc2n[nH]c3ccccc23)CC1 [Ex. 47] | – | 350
N#CC1(c2ccc(Br)cc2Cl)CCN(C(=O)Nc2n[nH]c3ccccc23)CC1 [Ex. 48] | – | 770
O=C(Nc1n[nH]c2ccccc12)N1CC=C(c2ccccc2)CC1 [Ex. 49] | 260 | –
O=C(Nc1n[nH]c2ccccc12)N1CC=C(c2ccc(F)cc2)CC1 [Ex. 50] | 1300 | –
O=C(Nc1n[nH]c2ccccc12)N1CC=C(c2ccccc2F)CC1 [Ex. 52] | 320 | –
O=C(Nc1n[nH]c2ccccc12)N1CC=C(c2ccc(F)c(Cl)c2)CC1 [Ex. 53] | 240 | –
O=C(Nc1n[nH]c2ccccc12)N1CC=C(c2cccc(F)c2)CC1 [Ex. 55] | 130 | –
O=C(Nc1n[nH]c2ccccc12)N1CC=C(c2cccc(F)c2F)CC1 [Ex. 56] | 230 | –
O=C(Nc1n[nH]c2ccccc12)N1CC=C(c2ccc(Cl)s2)CC1 [Ex. 58] | 120 | –
